30 compounds from patent US20240182453A1, “NOVEL SUBSTITUTED PYRAZINE-CARBOXAMIDE DERIVATIVES” (Boehringer Ingelheim International GmbH, priority 2022, published 2024) can be followed below.

Chain of human metabotropic Glutamate 4 receptor (mGluR4) (Q14833 33-912): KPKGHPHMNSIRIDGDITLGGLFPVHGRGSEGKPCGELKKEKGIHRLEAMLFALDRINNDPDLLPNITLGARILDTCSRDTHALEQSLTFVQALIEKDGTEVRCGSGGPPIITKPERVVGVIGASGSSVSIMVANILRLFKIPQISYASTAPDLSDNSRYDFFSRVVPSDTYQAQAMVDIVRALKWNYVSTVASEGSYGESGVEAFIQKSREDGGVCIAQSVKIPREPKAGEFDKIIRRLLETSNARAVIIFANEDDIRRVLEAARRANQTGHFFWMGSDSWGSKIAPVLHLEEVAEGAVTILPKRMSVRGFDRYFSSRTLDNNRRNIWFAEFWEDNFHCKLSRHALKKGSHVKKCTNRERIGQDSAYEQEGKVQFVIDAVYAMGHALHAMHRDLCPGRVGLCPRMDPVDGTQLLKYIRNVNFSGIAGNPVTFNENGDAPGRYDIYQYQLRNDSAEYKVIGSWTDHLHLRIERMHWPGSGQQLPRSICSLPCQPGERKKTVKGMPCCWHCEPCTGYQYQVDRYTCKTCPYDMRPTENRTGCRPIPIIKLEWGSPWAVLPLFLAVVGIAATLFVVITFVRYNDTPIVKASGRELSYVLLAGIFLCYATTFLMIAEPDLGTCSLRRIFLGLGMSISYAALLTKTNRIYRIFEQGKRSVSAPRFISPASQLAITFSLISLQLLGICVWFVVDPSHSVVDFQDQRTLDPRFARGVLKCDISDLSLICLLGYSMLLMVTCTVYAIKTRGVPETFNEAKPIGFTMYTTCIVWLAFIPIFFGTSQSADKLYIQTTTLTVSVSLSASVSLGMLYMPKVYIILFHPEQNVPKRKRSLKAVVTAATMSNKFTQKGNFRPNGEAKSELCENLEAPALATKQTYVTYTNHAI

The experiment has as its target human metabotropic Glutamate 4 receptor (mGluR4) (Homo sapiens (Human), UniProt Q14833). Kind of experiment: Assay A: in vitro testing of mGluR4 potency (glutamate-induced cAMP lowering, HTRF cAMP). The format is cell-based. The conditions noted are these: HEK293 cells overexpressing human mGluR4; 10 uM L-glutamic acid, 1 uM forskolin; compounds of the present invention. In outline: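 HEK293 cells overexpressing human mGluR4 treated 30 min at room temperature with compound plus 10 uM L-glutamate, 1 uM forskolin, 0.5 mM IBMX, 0.1% BSA, 1% DMSO. cAMP read by HTRF (665/615 nm ratio), normalized to glutamate (100%) and no-glutamate (0%) controls as percent of control.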
The term IC50 denotes the concentration that gives 50% inhibition. A high value points to a need for much substance. `Cc1cnc(C(=O)N[C@H](c2nc3cc(C(F)(F)F)ccc3n2C)C2(O)CCC2)cn1` [Example 93, N-[(R)-(1-hydroxycyclobutyl)[1-methyl-5-(trifluoromethyl)-1H-1,3-benzodiazol-2-yl]methyl]-5-methylpyrazine-2-carboxamide] came in with an IC50 of 9 nM. That is a single-digit nanomolar value.
The compound `COCCn1c([C@@H](NC(=O)c2cnc(C)cn2)C2CC2)nc2cc(Cl)ccc21` [Example 8, N-[(S)-[5-chloro-1-(2-methoxyethyl)-1H-1,3-benzodiazol-2-yl](cyclopropyl)methyl]-5-methylpyrazine-2-carboxamide] yielded an IC50 of 3 nM.
Under `CCn1c(C(NC(=O)c2cnc(C)cn2)C2CCOC2)nc2cc(F)ccc21` (single isomer, unassigned) [Example 143, N-[(1-ethyl-5-fluoro-1H-1,3-benzodiazol-2-yl)(oxolan-3-yl)methyl]-5-methylpyrazine-2-carboxamide] stands 66 nM; under `Cc1cnc(C(=O)N[C@H](c2nc3cc(F)ccc3n2C2CC2)C2CC2)cn1` [Example 73, N-[(S)-cyclopropyl (1-cyclopropyl-5-fluoro-1H-1,3-benzodiazol-2-yl)methyl]-5-methylpyrazine-2-carboxamide], 18 nM.
`Cn1c([C@H](CC2CC2)NC(=O)c2cnc(C(F)F)cn2)nc2cc(F)c(F)cc21` [Example 94, N-[(1S)-2-cyclopropyl-1-(5,6-difluoro-1-methyl-1H-1,3-benzodiazol-2-yl)ethyl]-5-(difluoromethyl)pyrazine-2-carboxamide] came in with an IC50 of 16 nM.
`Cc1cnc(C(=O)N[C@H](c2nc3cc(Br)c(F)cc3n2C)C2CC2)cn1` [Example 52, N-[(S)-(5-bromo-6-fluoro-1-methyl-1H-1,3-benzodiazol-2-yl) (cyclopropyl)methyl]-5-methylpyrazine-2-carboxamide]: the IC50 worked out at 5 nM.
Regarding `Cc1cnc(C(=O)N[C@H](c2nc3cc(F)ccc3n2CC(F)F)C(C)C)cn1` [Example 37, N-[(1S)-1-[1-(2,2-difluoroethyl)-5-fluoro-1H-1,3-benzodiazol-2-yl]-2-methylpropyl]-5-methylpyrazine-2-carboxamide], the IC50 came to 9 nM. Compared with the last compound, the IC50 is about 1.8-fold higher.
Under `Cc1cnc(C(=O)N[C@H](c2nc3cc(F)ccc3n2CC(F)F)[C@@H](C)OC(F)F)cn1` [Example 69, N-[(1R,2R)-1-[1-(2,2-difluoroethyl)-5-fluoro-1H-1,3-benzodiazol-2-y1]-2-(difluoromethoxy)propyl]-5-methylpyrazine-2-carboxamide] stands 18 nM.
In the case of `Cc1cnc(C(=O)N[C@H](c2nc3c(Cl)c(F)ccc3n2C)C2CC2)cn1` [Example 107, N-[(S)-(4-chloro-5-fluoro-1-methyl-1H-1,3-benzodiazol-2-yl)(cyclopropyl)methyl]-5-methylpyrazine-2-carboxamide] it was 13 nM; in that of `COCCn1c([C@@H](NC(=O)c2cnc(C)cn2)[C@H]2CCCO2)nc2cc(OC(F)(F)F)ccc21` [Example 89, N-[(R)-[1-(2-methoxyethyl)-5-(trifluoromethoxy)-1H-1,3-benzodiazol-2-yl][(2R)-oxolan-2-yl]methyl]-5-methylpyrazine-2-carboxamide], 10 nM; in that of `COCCn1c([C@@H](NC(=O)c2cnc(C)cn2)C2CC2)nc2c(C)c(Br)ccc21` [Example 54, N-[(S)-[5-bromo-1-(2-methoxyethyl)-4-methyl-1H-1,3-benzodiazol-2-yl](cyclopropyl)methyl]-5-methylpyrazine-2-carboxamide], 1 nM.
In turn, `Cc1cnc(C(=O)N[C@H](c2nc3cc(OC(F)(F)F)ccc3n2C)[C@@H]2CCCOC2)cn1` [Example 78, 5-methyl-N-[(S)-[1-methyl-5-(trifluoromethoxy)-1H-1,3-benzodiazol-2-yl][(3S)-oxan-3-yl]methyl]pyrazine-2-carboxamide] gave an IC50 of 13 nM.
In the case of `COCCn1c([C@@H](NC(=O)c2cnc(C)cn2)[C@@H](C)OC)nc2cc(OC(F)(F)F)ccc21` [Example 2, N-[(1R,2R)-2-methoxy-1-[1-(2-methoxyethyl)-5-(trifluoromethoxy)-1H-1,3-benzodiazol-2-yl]propyl]-5-methylpyrazine-2-carboxamide] it was 2 nM; in that of `COCCn1c([C@@H](NC(=O)c2cnc(C(F)F)cn2)[C@@H]2CCCO2)nc2cc(OC(F)(F)F)ccc21` [Example 40, 5-(difluoromethyl)-N-[(R)-[1-(2-methoxyethyl)-5-(trifluoromethoxy)-1H-1,3-benzodiazol-2-yl][(2S)-oxolan-2-yl]methyl]pyrazine-2-carboxamide], 2 nM; in that of `COCCn1c([C@@H](NC(=O)c2cnc(C)cn2)[C@H]2CCOC2)nc2cc(C(F)(F)F)ccc21` [Example 87, N-[(S)-[1-(2-methoxyethyl)-5-(trifluoromethyl)-1H-1,3-benzodiazol-2-yl][(3R)-oxolan-3-yl]methyl]-5-methylpyrazine-2-carboxamide], 12 nM.
`CO[C@H](C)[C@H](NC(=O)c1cnc(C)cn1)c1nc2cc(Br)c(F)cc2n1C` [Example 26, N-[(1R,2R)-1-(5-bromo-6-fluoro-1-methyl-1H-1,3-benzodiazol-2-yl)-2-methoxypropyl]-5-methylpyrazine-2-carboxamide] came in with an IC50 of 7 nM.
Under `Cc1cnc(C(=O)N[C@H](c2nc3cc(C(F)(F)F)ccc3n2CC(F)F)[C@H]2CCOC2)cn1` [Example 142, N-[(S)-[1-(2,2-difluoroethyl)-5-(trifluoromethyl)-1H-1,3-benzodiazol-2-yl][(3R)-oxolan-3-yl]methyl]-5-methylpyrazine-2-carboxamide] stands 8 nM; under `CCn1c([C@@H](NC(=O)c2cnc(C)cn2)C2CC2)nc2cc(C(F)(F)F)ccc21` [Example 36, N-[(S)-cyclopropyl[1-ethyl-5-(trifluoromethyl)-1H-1,3-benzodiazol-2-yl]methyl]-5-methylpyrazine-2-carboxamide], 3 nM.
Under `COCCn1c(C(NC(=O)c2cnc(C)cn2)C2CCOC2)nc2cc(Cl)ccc21` (single isomer, unassigned) [Example 91-1, N-{[5-chloro-1-(2-methoxyethyl)-1H-1,3-benzodiazol-2-yl](oxolan-3-yl)methyl}-5-methylpyrazine-2-carboxamide] stands 32 nM.
In the case of `Cc1cnc(C(=O)N[C@H](c2nc3cc(Cl)ccc3n2C2CC2)C2CC2)cn1` [Example 101, N-[(S)-(5-chloro-1-cyclopropyl-1H-1,3-benzodiazol-2-yl)(cyclopropyl)methyl]-5-methylpyrazine-2-carboxamide], the IC50 turned out to be 9 nM.
Under `COCCn1c([C@@H](NC(=O)c2cnc(C(F)F)cn2)[C@H]2CCCO2)nc2cc(OC(F)(F)F)ccc21` [Example 53, 5-(difluoromethyl)-N-[(R)-[1-(2-methoxyethyl)-5-(trifluoromethoxy)-1H-1,3-benzodiazol-2-yl][(2R)-oxolaN-2-yl]methyl]pyrazine-2-carboxamide] stands 6 nM; under `CCn1c([C@@H](NC(=O)c2cnc(C)cn2)[C@@H]2CCOC2)nc2cc(C(F)(F)F)ccc21` [Example 140, N-[(S)-[1-ethyl-5-(trifluoromethyl)-1H-1,3-benzodiazol-2-yl][(3S)-oxolan-3-yl]methyl]-5-methylpyrazine-2-carboxamide], 12 nM; under `CCn1c([C@@H](NC(=O)c2cnc(C)cn2)[C@@H]2CCOC2)nc2cc(OC(F)(F)F)ccc21` [Example 97, N-[(S)-[1-ethyl-5-(trifluoromethyoxy)-1H-1,3-benzodiazol-2-yl][(3S)-oxolan-3-yl]methyl]-5-methylpyrazine-2-carboxamide], 20 nM.
As to `O=C(N[C@@H](CC1CC1)c1nc2cc(Cl)ccc2n1CCOC(F)F)c1cnc(C(F)F)cn1` [Example 108, N-[(1S)-1-{5-chloro-1-[2-(difluoromethoxy)ethyl]-1H-1,3-benzodiazol-2-yl}-2-cyclopropylethyl]-5-(difluoromethyl)pyrazine-2-carboxamide], the midpoint of inhibition, the IC50, lay at 6 nM.
Take `Cc1cnc(C(=O)N[C@@H](CC2CC2)c2nc3cc(OC(F)(F)F)ccc3n2C)cn1` [Example 105, N-[(1S)-2-cyclopropyl-1-[1-methyl-5-(trifluoromethoxy)-1H-1,3-benzodiazol-2-yl]ethyl]-5-methylpyrazine-2-carboxamide]: the IC50 was found to be 8 nM.
Turning to `COCCn1c(C(NC(=O)c2cnc(C)cn2)C2CCCO2)nc2cc(C(F)(F)F)ccc21` (single isomer, unassigned) [Example 71-2, N-{[1-(2-methoxyethyl)-5-(trifluoromethyl)-1H-1,3-benzodiazol-2-yl](oxolan-2-yl)methyl}-5-methylpyrazine-2-carboxamide], the IC50 was determined as 3 nM.
`CCn1c([C@@H](NC(=O)c2cnc(C)cn2)C(C)(C)O)nc2cc(C(F)(F)F)ccc21` [Example 104, N-[(1R)-1-[1-ethyl-5-(trifluoromethyl)-1H-1,3-benzodiazol-2-yl]-2-hydroxy-2-methylpropyl]-5-methylpyrazine-2-carboxamide] registered an IC50 of 17 nM.
Under `CCn1c([C@@H](NC(=O)c2cnc(C)cn2)[C@]2(O)CCCOC2)nc2cc(F)ccc21` [Example 150, N-[(R)-(1-ethyl-5-fluoro-1H-1,3-benzodiazol-2-yl)[(3R)-3-hydroxyoxan-3-yl]methyl]-5-methylpyrazine-2-carboxamide] stands 14 nM.
`O=C(N[C@@H](CC1CC1)c1nc2cc(F)c(F)cc2n1CCOC(F)F)c1cnc(C(F)F)cn1` [Example 111, N-[(1S)-2-cyclopropyl-1-{1-[2(difluoromethoxy)ethyl]-5,6-difluoro-1H-1,3-benzodiazol-2-yl}ethyl]-5-(difluoromethyl)pyrazine-2-carboxamide] had an IC50 of 10 nM.
Under `CCn1c(C(NC(=O)c2cnc(C)cn2)C2CCOC2)nc2cc(F)c(F)cc21` (single isomer, unassigned) [Example 160, N-[(1-ethyl-5,6-difluoro-1H-1,3-benzodiazol-2-yl)(oxolan-3-yl)methyl]-5-methylpyrazine-2-carboxamide] stands 47 nM.
